# Source: paper doi:10.1101/2020.11.06.371534v1 (biorxiv, 2020)
# Structures can show the parent of a compound that is named as a salt.
# Assays:
# [1] = molecular target: T1, Porcine pancreatic elastase (PE) (Sus scrofa, UniProt P00772); test: chromogenic assay, OD […] nm, non-linear regression; assay type: biochemical
# [2] = molecular target: T1, Porcine pancreatic elastase (PE); test: microscale thermophoresis, NT-647-NHS labelled enzyme; assay type: binding
# [3] = molecular target: T1, Porcine pancreatic elastase (PE); test: chromogenic assay, OD […] nm; assay type: biochemical
# T1 sequence (P00772 27-266): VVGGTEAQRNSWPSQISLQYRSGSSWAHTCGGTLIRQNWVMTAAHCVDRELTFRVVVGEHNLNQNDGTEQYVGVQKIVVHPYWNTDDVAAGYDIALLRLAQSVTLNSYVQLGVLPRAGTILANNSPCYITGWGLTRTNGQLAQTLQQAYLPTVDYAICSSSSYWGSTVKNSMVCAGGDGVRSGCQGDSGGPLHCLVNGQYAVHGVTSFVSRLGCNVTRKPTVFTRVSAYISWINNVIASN
smiles,measurement,setting,value
"CC(C)(C)C(=O)Oc1ccc(S(=O)(=O)Nc2ccccc2C(=O)NCC(=O)O)cc1 [Sivelestat sodium salt hydrate, sodium;2-[[2-[[4-(2,2-dimethylpropanoyloxy)phenyl]sulfonylamino]benzoyl]amino]acetate]",IC50,[1],15.8 µM
"O=c1cc(-c2ccccc2)oc2cc(O)c(O)c(O)c12 [Baicalein, 5,6,7-trihydroxy-2-phenylchromen-4-one]",IC50,[1],3.53 µM
same,Kd,[2],26.2 nM
"O=c1c(O)c(-c2ccccc2)oc2cc(O)cc(O)c12 [Galangin, 3,5,7-trihydroxy-2-phenylchromen-4-one]",inhibition at 100 µM,[3]; read-out: % inhibition at 100 μM,23.6%
"COc1ccc([C@@H]2CC(=O)c3c(O)cc(O)cc3O2)cc1O [Hesperetin, (2S)-5,7-dihydroxy-2-(3-hydroxy-4-methoxyphenyl)-2,3-dihydrochromen-4-one]",inhibition at 125 µM,[3]; read-out: % inhibition at 125 μM,31.5%
